In patent publication US9193729B2, “Inhibiting transient receptor potential ion channel TRPA1” (Cubist Pharmaceuticals, Inc., priority 2011, dated 2015):
“Also recorded” adds a separate entry of the source.

How the values were obtained:
[1] = molecular target: dTRPA1 (Canis lupus familiaris, UniProt A0A8I3Q1Q7); test: Whole-cell patch clamp inhibition of dTRPA1; type: cell-based, Dog; conditions: dTRPA1, 10 micromolar AITC activation; read-out: IC50 Inward current
Protocol: (§1) Data for TRPA1 inhibition and the selectivity of TRPA1 inhibition was obtained by this method for the compound of Formula (Ia) and included in Table 1 and Table 2. All currents were recorded in whole-cell configuration using EPC-9 and EPC-10 amplifiers and Patchmaster software (HEKA). […] The standard pipette solution consisted of 140 mM CsAsp, 10 mM EGTA, 10 mM HEPES, 2.27 mM MgCl2, 1.91 mM CaCl2, 4 mM MgATP, and 0.1-0.3 mM Na2GTP, with pH adjusted to 7.2 with CsOH. In addition, a solution containing 145 mM CsCl, 10 mM HEPES, 10 mM EGTA and 1 mM MgCl2 (pH 7.2 adjusted with CsOH) can be used. The standard bath solution contained 150 mM NaCl, 10 mM HEPES, 10 mM glucose, 4.5 mM KCl, 1 mM EGTA, 3 mM MgCl2, with pH adjusted to 7.4 with NaOH. In some instances, 2 mM CaCl2 was added in place of EGTA and the concentration of MgCl2 was reduced to 1 mM.
(§2) Data were collected either by continuous recordings at −60 mV or by applying voltage ramps from a holding potential of 0 mV every 4 s. […] Inward and outward currents were analyzed from the ramps at −80 and 80 mV, respectively. […]
(§3) Solutions were switched using a gravity-fed continuous focal perfusion system. […] Temperatures were confirmed using a thermistor (Warner Instruments, TA-29), with temperatures at the recorded cell estimated to be within +/−2° C. of those reported. […]

[2] = tested on: incisional spontaneous pain; test: Surgical incision pain model (Brennan Surgical Model); type: in vivo, rat; conditions: 60 mg/kg i.p. vs ketoprofen (2 doses of 2 mg/kg intraperitoneally)
Protocol: The compound of Formula (Ia), the comparator compound of Formula (III) and ketoprofen were tested by the incisional pain test method reported in Brennan et al., Pain, 1996 March; 64(3):493-501 incorporated herein by reference in its entirety. Briefly, in rats under anesthesia, a 1 cm incision through skin and underlying muscle is made in the bottom of one hind paw. The incision is sutured closed and the animals allowed to regain consciousness in their home cage before being placed on a special mesh rack. The blinded observer subjectively assesses and records each animal's pain score every 5 minutes for 1 hour. Pain scores are assigned as follows: Score of 0=Injured paw is held flat on the rack and is bearing weight (=uninjured paw); 1=Injured paw is slightly lifted from the rack but is bearing some weight; 2=Injured paw is flat but is bearing no weight, or heel is lifted high off the rack with only toes touching. At the end of each hour, pain scores are added up and the final score recorded ([…]). In a typical study the efficacy of the drug treatment is determined by comparing the cumulative guarding scores at 1-2 and 3-4 hours following surgical injury to the cumulative guarding scores of animals that received the vehicle.

[3] = molecular target: T1, hTRPV6 (Homo sapiens, UniProt Q9H1D0); test: Patch clamp selectivity, hTRPV6; type: cell-based; conditions: hTRPV6 vs TRPA1
T1 sequence (Q9H1D0 1-765): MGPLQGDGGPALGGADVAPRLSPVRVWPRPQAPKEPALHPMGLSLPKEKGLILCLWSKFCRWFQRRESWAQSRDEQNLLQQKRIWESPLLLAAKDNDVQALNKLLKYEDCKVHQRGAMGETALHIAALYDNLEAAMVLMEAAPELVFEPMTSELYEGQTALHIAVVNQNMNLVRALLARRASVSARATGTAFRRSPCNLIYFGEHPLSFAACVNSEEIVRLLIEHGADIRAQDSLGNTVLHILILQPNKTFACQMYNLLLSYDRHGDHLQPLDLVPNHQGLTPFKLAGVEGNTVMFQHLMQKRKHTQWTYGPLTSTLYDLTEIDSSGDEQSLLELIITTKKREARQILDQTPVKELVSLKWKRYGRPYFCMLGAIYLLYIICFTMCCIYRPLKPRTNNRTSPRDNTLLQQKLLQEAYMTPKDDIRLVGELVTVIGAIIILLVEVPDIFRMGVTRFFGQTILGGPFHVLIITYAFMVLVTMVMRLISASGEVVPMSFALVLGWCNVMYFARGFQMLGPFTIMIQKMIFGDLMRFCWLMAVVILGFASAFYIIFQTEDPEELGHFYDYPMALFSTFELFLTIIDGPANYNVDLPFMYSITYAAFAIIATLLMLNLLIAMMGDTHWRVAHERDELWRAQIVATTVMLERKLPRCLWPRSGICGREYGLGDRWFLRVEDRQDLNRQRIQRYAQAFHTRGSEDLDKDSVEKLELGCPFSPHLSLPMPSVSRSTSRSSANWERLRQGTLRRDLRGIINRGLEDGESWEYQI
Protocol: as §1, §2, §3

[4] = molecular target: hTRPM8 (Homo sapiens, UniProt Q7Z2W7); test: Patch clamp selectivity, hTRPM8; type: cell-based; conditions: hTRPM8 vs TRPA1
Protocol: as §1, §2, §3

[5] = tested on: healthy male volunteers; test: Single ascending dose Phase 1A study; type: in vivo, human; conditions: 6 ascending single doses, placebo-controlled
From the text: A randomized, double-blind, placebo-controlled, cross-over, single dose, safety, tolerability and pharmacokinetic study of 6 ascending doses of the compound of Formula (Ia) was undertaken in two cohorts of healthy male volunteers. A total of eighteen eligible healthy mail volunteers were recruited utilizing an alternating panel design. The first cohort of nine subjects (Cohort 1) was sequentially enrolled into 3 of 6 dosing periods (Dose Levels 1, 3, and 5). The remaining cohort of nine subjects (Cohort 2) was enrolled in the other 3 dosing periods (Dose Levels 2, 4, and 6). Within each dosing period, subjects were randomly assigned 2:1 to the compound of Formula (I) (n=6) or placebo (n=3). Each subject received one dose of placebo and two different doses of the compound of Formula (I) over the course of their participation in all three dosing periods. Subjects were equally randomized to one of 3 possible sequences, namely 1) placebo, active, active, 2) active, placebo, active, and 3) active, active, placebo.

[6] = molecular target: hTRPV4 (Homo sapiens, UniProt Q9HBA0); test: Patch clamp selectivity, hTRPV4 (block); type: cell-based; conditions: hTRPV4 vs TRPA1
Protocol: as §1, §2, §3

Chain of dTRPA1 (A0A8I3Q1Q7 1-1118): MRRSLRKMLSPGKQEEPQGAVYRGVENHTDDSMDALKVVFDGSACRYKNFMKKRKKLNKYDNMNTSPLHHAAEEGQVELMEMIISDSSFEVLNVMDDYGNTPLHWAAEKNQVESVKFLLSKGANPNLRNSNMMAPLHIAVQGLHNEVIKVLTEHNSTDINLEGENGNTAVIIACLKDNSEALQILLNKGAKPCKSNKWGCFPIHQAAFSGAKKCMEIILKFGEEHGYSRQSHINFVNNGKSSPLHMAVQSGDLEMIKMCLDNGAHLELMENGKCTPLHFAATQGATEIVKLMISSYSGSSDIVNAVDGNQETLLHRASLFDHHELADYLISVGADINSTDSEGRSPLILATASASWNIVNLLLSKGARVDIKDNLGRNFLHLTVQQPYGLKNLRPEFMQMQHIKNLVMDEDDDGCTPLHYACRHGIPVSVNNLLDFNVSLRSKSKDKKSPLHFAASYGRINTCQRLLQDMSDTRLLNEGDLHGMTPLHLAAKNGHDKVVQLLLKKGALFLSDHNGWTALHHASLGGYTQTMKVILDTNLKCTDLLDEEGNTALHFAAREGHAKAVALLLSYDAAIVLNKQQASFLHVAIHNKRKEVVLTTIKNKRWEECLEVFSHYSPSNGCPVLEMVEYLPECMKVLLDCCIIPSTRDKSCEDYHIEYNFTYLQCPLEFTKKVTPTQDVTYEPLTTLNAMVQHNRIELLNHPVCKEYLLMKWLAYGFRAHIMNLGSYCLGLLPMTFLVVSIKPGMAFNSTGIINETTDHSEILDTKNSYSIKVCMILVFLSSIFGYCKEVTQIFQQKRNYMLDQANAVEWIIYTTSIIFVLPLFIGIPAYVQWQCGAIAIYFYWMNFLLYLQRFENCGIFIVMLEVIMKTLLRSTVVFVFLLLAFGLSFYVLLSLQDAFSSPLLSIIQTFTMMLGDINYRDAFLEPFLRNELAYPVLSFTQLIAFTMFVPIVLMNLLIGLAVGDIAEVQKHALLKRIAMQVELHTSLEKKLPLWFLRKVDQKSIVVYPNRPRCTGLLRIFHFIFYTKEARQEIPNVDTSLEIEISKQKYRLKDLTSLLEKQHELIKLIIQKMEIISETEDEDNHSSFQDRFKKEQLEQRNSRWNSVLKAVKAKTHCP
Chain of hTRPM8 (Q7Z2W7 whole entry): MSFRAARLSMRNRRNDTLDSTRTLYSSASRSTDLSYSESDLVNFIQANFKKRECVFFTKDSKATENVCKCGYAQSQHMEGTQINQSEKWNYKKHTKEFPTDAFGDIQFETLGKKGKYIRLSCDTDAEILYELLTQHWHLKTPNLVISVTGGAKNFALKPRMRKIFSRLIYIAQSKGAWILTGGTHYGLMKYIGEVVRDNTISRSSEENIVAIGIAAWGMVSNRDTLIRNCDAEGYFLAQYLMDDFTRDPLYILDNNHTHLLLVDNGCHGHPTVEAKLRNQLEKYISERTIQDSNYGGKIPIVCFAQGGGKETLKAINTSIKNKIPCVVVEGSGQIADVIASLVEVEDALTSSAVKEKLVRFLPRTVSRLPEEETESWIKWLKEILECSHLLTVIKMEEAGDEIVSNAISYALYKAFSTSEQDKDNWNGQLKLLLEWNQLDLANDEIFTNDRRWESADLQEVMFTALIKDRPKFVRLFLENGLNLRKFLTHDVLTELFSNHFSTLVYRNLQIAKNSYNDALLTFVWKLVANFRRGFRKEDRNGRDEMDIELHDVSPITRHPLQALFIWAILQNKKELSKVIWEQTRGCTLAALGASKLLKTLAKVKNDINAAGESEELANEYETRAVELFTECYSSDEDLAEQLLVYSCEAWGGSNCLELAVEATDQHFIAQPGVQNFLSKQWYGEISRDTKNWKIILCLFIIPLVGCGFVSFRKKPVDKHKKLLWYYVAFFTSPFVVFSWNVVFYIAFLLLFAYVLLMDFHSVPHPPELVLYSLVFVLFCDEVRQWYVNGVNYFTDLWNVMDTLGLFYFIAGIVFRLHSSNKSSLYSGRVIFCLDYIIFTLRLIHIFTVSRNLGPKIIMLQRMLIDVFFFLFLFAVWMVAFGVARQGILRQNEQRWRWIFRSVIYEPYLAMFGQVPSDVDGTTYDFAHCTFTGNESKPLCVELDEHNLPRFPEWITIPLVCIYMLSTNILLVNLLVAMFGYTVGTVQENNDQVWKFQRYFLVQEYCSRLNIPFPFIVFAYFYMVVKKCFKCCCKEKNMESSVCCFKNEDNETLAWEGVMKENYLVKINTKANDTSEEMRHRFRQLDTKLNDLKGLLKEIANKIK
Chain of hTRPV4 (Q9HBA0 whole entry): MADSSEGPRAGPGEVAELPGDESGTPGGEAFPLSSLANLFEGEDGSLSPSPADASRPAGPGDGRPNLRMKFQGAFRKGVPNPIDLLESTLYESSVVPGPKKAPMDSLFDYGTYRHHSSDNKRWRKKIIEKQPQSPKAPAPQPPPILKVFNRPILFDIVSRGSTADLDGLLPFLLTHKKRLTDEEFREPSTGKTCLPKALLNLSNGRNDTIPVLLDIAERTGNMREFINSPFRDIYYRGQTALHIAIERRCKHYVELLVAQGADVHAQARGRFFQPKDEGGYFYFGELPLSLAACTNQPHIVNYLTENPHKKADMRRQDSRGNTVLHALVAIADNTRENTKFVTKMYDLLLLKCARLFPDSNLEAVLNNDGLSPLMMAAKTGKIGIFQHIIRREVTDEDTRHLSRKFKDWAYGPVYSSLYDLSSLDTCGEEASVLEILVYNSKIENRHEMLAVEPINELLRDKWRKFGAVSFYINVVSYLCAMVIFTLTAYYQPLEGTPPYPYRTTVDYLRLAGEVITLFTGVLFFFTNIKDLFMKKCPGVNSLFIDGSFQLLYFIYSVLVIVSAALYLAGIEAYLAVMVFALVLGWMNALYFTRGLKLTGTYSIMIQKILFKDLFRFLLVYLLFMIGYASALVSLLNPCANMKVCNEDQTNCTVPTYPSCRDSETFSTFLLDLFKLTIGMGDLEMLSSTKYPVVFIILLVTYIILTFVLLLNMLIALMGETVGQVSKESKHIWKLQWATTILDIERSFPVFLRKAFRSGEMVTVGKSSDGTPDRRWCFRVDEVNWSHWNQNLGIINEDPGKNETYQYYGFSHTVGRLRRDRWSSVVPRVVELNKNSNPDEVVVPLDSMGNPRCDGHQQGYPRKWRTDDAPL

IC50 [1]: ~100 nM | Fold Selectivity Compared to TRPA1 [3]: ~370 Fold | Fold Selectivity Compared to TRPA1 [4]: ~200 Fold | Fold Selectivity Compared to TRPA1 [6]: ~170 Fold
Compound: C[C@H]1CCCN1c1ncc(-c2cccc(NC(=O)Cn3cnc4c3c(=O)n(C)c(=O)n4C)n2)cn1 [Formula (Ia)]
reduction of spontaneous pain compared with ketoprofen [2]: equivalent to ketoprofen; also recorded: better than ketoprofen | safety signals [5]: no safety signals seen that were attributable to the compound
